We go through 4 molecules from patent US20230210832A1, “METHODS FOR TREATING ALZHEIMER'S DISEASE” (priority 2020, published 2023).

Values after ≈ are worked out from the molar mass of the structure shown. Some results are limits rather than exact numbers.

For data set [1] the following is noted: mice, 26 weeks of once daily oral gavage administration; cited from earlier work.
Data set [2] relates to Tg2576 AD model mice and WT (B6/SJL) littermates. Briefly: Contextual fear conditioning. Type of data set: in vivo, mouse. Conditions: 1-month treatment, mean±standard deviation. As to the method: Contextual Fear Conditioning: The apparatus consisted of a transparent chamber inside an enclosure with an opening in the ceiling to allow video recordings. The chamber consisted of a steel grid floor connected to a shock generator scrambler. The test encompassed two sessions: conditioning and a context test. On the conditioning day, the mice were individually placed in the chamber and allowed to explore freely for 5 minutes during which, at the 180th second, they received a foot shock of 0.50-0.80 mA for 3 seconds through the bars of the floor. 24 hours after conditioning, the mice were individually placed back in the chamber for 4 minutes, this time with no noxious stimuli. The mice were monitored for movement and freezing behaviour was recorded using computer software (Limelight, ActiMetrics, Wilmette, Ill., USA). Exclusion criteria were set for freezing events less than 2 seconds. This test was used to determine associative working memory. We explored the animal's ability to associate an environment with a noxious event that it experienced there. […] Freezing is a species-specific response to fear, which is defined as “the absence of movement except for respiration.” This may last for seconds to minutes depending on the strength of the aversive stimulus and whether the subject is able to recall the shock.

A short description of another data set: physchem. The conditions noted are these: 100% DMSO, organic solvent or mixture.
The subject of data set [3] is Tg2576 AD model mice and WT (B6/SJL) littermates. Put plainly: Spontaneous alternation (Y-maze). The data set is classed as in vivo, mouse. The conditions noted are these: drug-treated Tg2576 mice, 1-month treatment; mean±standard deviation. As to the method:
Spontaneous alternation (Y-maze): The test for novelty exploration using spatial and working memory was conducted using a symmetrical Y-maze with a grey steel bottom plate and grey Perspex® walls (Stoelting Co, Wood Dale, Ill.). Each arm of the Y-maze was 35 cm long, 5 cm wide, and 10 cm high, and the wall at the end of each arm was identified by a different colour: white, blue or red. The spatial acquisition phase comprised a one-day trial with the mice tracked while moving freely through the three arms of the Y maze during an 8-minute session. The movements were tracked by a computer tracking system (ANY-maze, Stoelting). The performance was gauged by the percentage of alternations that was calculated as the total number of alternations×100/(total number of arm entries−2). Alternation was defined as successive entries into the three arms on overlapping triplet sets. A high percentage of alternation was indicative of sustained cognition, as the animals must remember which arm was entered last to avoid re-entering it.

Data set [4] has as its system Human brain endothelial cells (HBEC-5i). Briefly: Western blot of HBEC-5i cell lysates after peptide treatment. The conditions noted are these: 24 hrs, Aβ peptides 10 μM, Ang-2 200 ng/ml, VEGFA-165 100 ng/ml, vs PBS-treated cells. Type of data set: cell-based. For orientation: A western blot detects proteins with antibodies after separation by electrophoresis.
Description: Human brain endothelial cells, HBEC-5i (ATCC® CRL-3245™) were cultured on 0.1% gelatin coated tissue culture plates in DMEM-F12 media (Gibco; cat. #10565-018) supplemented by 10% heat-inactivated fetal bovine serum (FBS) (Gibco; cat. #A31607-01) and 40 μg/ml endothelial growth supplement (Sigma-Aldrich; cat. #E2759). Cells were grown until they reached 70% confluency and then used for experiments.
Cell culture: Human brain endothelial cells were grown in 10 cm tissue culture plates. […] After the treatment, the medium was removed, and cells were washed with PBS and then lysed with RIPA buffer that contained protease and phosphatase inhibitors. These cells were then used to analyze different proteins of interest.
Immunoblotting analysis and co-immunoprecipitation: For western blot analysis, the fractional homogenate samples were prepared with Dithiothreitol (DTT) in the sample buffer (100 mM Tris-Cl (pH 6.8), 4% (w/v) SDS, 0.2% (w/v) bromophenol blue, 20% (v/v) glycerol and 200 mM DTT). Homogenates were electrophoresed and immunoblotted with indicated antibodies. […] The proteins in the eluate were resolved on the acrylamide gel according to standard practices. […] The signal intensities were imaged by using the Odyssey infrared image system (LICOR), and relative levels of immunoreactivity were analyzed by the Image Studio Lite software.

For orientation: solubility means the dissolved amount per volume that the medium holds. Regarding `CNC(=O)c1ccccc1Sc1ccc2c(/C=C/c3ccccn3)n[nH]c2c1` [Axitinib], the “no-observed-adverse-effect-levels (NOAELs)” value in data set [1] is given as < 10 mg/kg/day. The freezing percentage in data set [2] (drug-treated Tg2576 mice) amounted to 14.4±7.3%; in data set [2] (drug-treated WT (B6/SJL) mice), 17.74±14.4%. In addition, the solubility in “physchem” was 40 mg/mL (≈ 103 mM).
Take `CCN(CC)CCNC(=O)c1c(C)[nH]c(/C=C2\C(=O)Nc3ccc(F)cc32)c1C` [Sunitinib]: the freezing percentage amounted to 10.9±5.8% in data set [2] (drug-treated Tg2576 mice) and 25.4±19.4% in data set [2] (drug-treated WT (B6/SJL) mice). In data set [3], this molecule showed a percentage of alternation of 49.3±12.1%. Also, in the data set “physchem”, the solubility came to 30 mg/mL (≈ 75.3 mM).
“Aβ1-42 peptide: Aβ1-42 peptide (NovoPrep synthetic peptide), predominantly found in plaques”: the “expression of VEGFR2” value in data set [4] was “did not exert a similar effect”.

B1: Ang-2 peptide: human Ang-2 peptide (abcam; ab99482), Tie-2 receptor ligand (protein, UniProt O15123 19-496, looked up)
Angiopoietin-2: YNNFRKSMDSIGKKQYQVQHGSCSYTFLLPEMDNCRSSSSPYVSNAVQRDAPLEYDDSVQRLQVLENIMENNTQWLMKLENYIQDNMKKEMVEIQQNAVQNQTAVMIEIGTNLLNQTAEQTRKLTDVEAQVLNQTTRLELQLLEHSLSTNKLEKQILDQTSEINKLQDKNSFLEKKVLAMEDKHIIQLQSIKEEKDQLQVLVSKQNSIIEELEKKIVTATVNNSVLQKQQHDLMETVNNLLTMMSTSNSAKDPTVAKEEQISFRDCAEVFKSGHTTNGIYTLTFPNSTEEIKAYCDMEAGGGGWTIIQRREDGSVDFQRTWKEYKVGFGNPSGEYWLGNEFVSQLTNQQRYVLKIHLKDWEGNEAYSLYEHFYLSSEELNYRIHLKGLTGTAGKISSISQPGNDFSTKDGDNDKCICKCSQMLTGGWWFDACGPSNLNGMYYPQRQNTNKFNGIKWYYWKGSGYSLKATTMMIRPADF
On to B1, for which the “expression of VEGFR2” value in data set [4] is reported as “slight increase”.
